Test results as given in US20250109387A1, “SMOOTH MUSCLE CELLS SEEDED IN MICROCHANNELS WITHIN HYDROGELS TO FORM FUNCTIONAL MEDIAL LAYERS IN ENGINEERED MICROVASCULATURE” (VANDERBILT UNIVERSITY, priority 2023, published 2025).

Test system: HASMCs
Experiment: Calcium imaging of HASMCs carrying GCaMP6f after ET-1 exposure
Type: cell-based, human
Settings: 500 nM endothelin-1; HASMCs cultured in flasks (2D) and in channels (3D); fluorescence microscopy
Protocol: Calcium imaging: HASMCs were infected with lentivirus carrying GCaMP6f and cultured in flasks (2D) and in channels (3D). Cells were then exposed to 500 nM endothelin-1 (ET-1, vasoconstrictor), and imaged via fluorescence microscopy (FIGS. 16A-16F).

endothelin-1 [ET-1] was tested, and the “intracellular Ca^2+ release (GCaMP6f fluorescence over time)” value was “substantial intracellular Ca^2+ release”.
